Target: T1, human adenosine A3 receptor (Homo sapiens, UniProt P0DMS8)
T1 construct: expressed in transfected cells; host or cells: CHO cells (CHOhA3R), gift of Dr. K.-N. Klotz (University of Würzburg); membrane preparation
T1 sequence (P0DMS8 1-318): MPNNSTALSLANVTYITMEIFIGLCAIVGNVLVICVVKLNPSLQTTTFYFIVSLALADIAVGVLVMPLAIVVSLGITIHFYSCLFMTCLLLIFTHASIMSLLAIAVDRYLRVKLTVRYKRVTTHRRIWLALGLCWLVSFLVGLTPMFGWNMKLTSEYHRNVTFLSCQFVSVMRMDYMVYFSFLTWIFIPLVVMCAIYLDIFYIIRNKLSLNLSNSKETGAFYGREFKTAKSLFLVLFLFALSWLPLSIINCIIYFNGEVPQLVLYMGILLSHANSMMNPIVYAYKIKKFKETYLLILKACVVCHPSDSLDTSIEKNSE
Test: Radioligand displacement assay, human adenosine A3 receptor ([3H]PSB11, CHOhA3R membranes)
Assay type: binding
Details: for inhibition at 10 µM: test compound 10 µM; for inhibition at 10 µM / Ki: n = 3; for Ki: [3H]PSB11, read-out: A3 Ki ± SEM
Method: Chinese hamster ovary (CHO) cells stably expressing the human adenosine A1 receptor (CHOhA1R) were kindly provided by Prof. S. J. Hill and CHO cells stably expressing the human adenosine A3 receptor (CHOhA3R) were a gift from Dr. K.-N. Klotz (University of Würzburg, Germany). Chinese hamster ovary cells stably expressing the human A1-receptor (CHOhA1R) or the human A3-receptor (CHOhA3R) were grown in Dulbecco’s Modified Eagle’s Medium (DMEM) and Ham’s F12 medium (1:1) supplemented with 10% (v/v) newborn calf serum, 50 µg/mL streptomycin, 50 IU/mL penicillin, and 200 µg/mL G418 at 37 °C and 5% CO2. […] All cells were grown to 80–90% confluency and detached from plates by scraping them into 5 mL phosphate-buffered saline. Detached cells were collected and centrifuged at 200 g for 5 min. Pellets derived from 100 15 cm Ø plates were pooled and resuspended in 70 mL of ice-cold 50 mM tris(hydroxymethyl)aminomethane (Tris)-HCl buffer, pH 7.4. A Heidolph Diax 900 homogenizer was used to homogenize the cell suspension. Membranes and the cytosolic fraction were separated by centrifugation at 100,000 g in a Beckman Optima LE-80 K ultracentrifuge (Beckman Coulter, Fullerton, CA, USA) at 4 °C for 20 min. The pellet was resuspended in 35 mL of the Tris-HCl buffer, and the homogenization and centrifugation steps were repeated. Tris-HCl buffer (25 mL) was used to resuspend the pellet, and adenosine deaminase (ADA) was added (0.8 U/mL) to break down endogenous adenosine. Membranes were stored in 250 µL and 500 µL aliquots at −80 °C. Total protein concentrations were measured using the bicinchoninic acid (BCA) method.
A3 Receptor: Membrane aliquots containing 15 µg (CHOhA3R) total protein were incubated in a total volume of 100 µL assay buffer (50 mM Tris-HCl, pH 8.0, supplemented with 10 mM MgCl2, 1 mM EDTA and 0.01% (w/v) CHAPS) at 25 °C for 2 h. Radioligand displacement experiments were performed using six concentrations of competing ligand in the presence of 10 nM [^3H]8-ethyl-4-methyl-2-phenyl-(8R)-4,5,7,8-tetrahydro-1H-imidazo[2.1-i]purin-5-one ([^3H]PSB11). […] Nonspecific binding was determined in the presence of 100 µM NECA. Incubations were terminated by rapid vacuum filtration to separate the bound and free radioligand through prewetted 96-well GF/B filter plates using a PerkinElmer Filtermate-harvester (Perkin Elmer, Groningen, The Netherlands). Filters were subsequently washed 12 times with ice-cold 50 mM Tris-HCl supplemented with 10 mM MgCl2, and 1 mM EDTA, pH 8.0 for CHOhA3R.
The plates of all four adenosine receptor assays were dried at 55 °C after which MicroscintTM-20-cocktail was added (Perkin Elmer, Groningen, The Netherlands).
All experimental data were analyzed using the non-linear regression curve fitting program GraphPad Prism 7.0 (GraphPad Software Inc., San Diego, CA, USA). IC50 values obtained from competition displacement binding data were converted into Ki values using the Cheng–Prusoff equation.

inhibition at 10 µM [%]	Ki [nM]	SMILES	further results
–	> 10000	OC[C@@]12C[C@@H]1[C@@H](n1cnc3c(Cl)cc(Cl)nc31)[C@H](O)[C@@H]2O [Compound 12, (1R,2R,3S,4R,5S)-4-(5,7-Dichloro-3H-imidazo[4,5-b]pyridin-3-yl)-1-(hydroxymethyl)bicyclo[3.1.0]hexane-2,3-diol]	–
–	460 ± 20	OC[C@@]12C[C@@H]1[C@@H](n1cnc3c(NCc4ccccc4)cc(Cl)nc31)[C@H](O)[C@@H]2O [Compound 13, (1R,2R,3S,4R,5S)-4-[7-(Benzylamino)-5-chloro-3H-imidazo[4,5-b]pyridin-3-yl]-1-(hydroxymethyl)bicyclo[3.1.0]hexane-2,3-diol]	–
–	1510 ± 30	CSc1cc(NCc2ccccc2)c2ncn([C@H]3[C@H](O)[C@H](O)[C@]4(CO)C[C@H]34)c2n1 [Compound 14, (1R,2R,3S,4R,5S)-4-[7-(Benzylamino)-5-methylthio-3H-imidazo[4,5-b]pyridin-3-yl]-1-(hydroxymethyl)bicyclo[3.1.0]hexane-2,3-diol]	–
–	500 ± 10	COc1ccc(CNc2cc(Cl)nc3c2ncn3[C@H]2[C@H](O)[C@H](O)[C@]3(CO)C[C@H]23)cc1 [Compound 15, (1R,2R,3S,4R,5S)-4-{5-Chloro-7-[(4-methoxy)benzylamino]-3H-imidazo[4,5-b]pyridin-3-yl}-1-(hydroxymethyl)bicyclo[3.1.0]hexane-2,3-diol]	–
–	1600 ± 110	Nc1cc(Cl)nc2c1ncn2[C@H]1[C@H](O)[C@H](O)[C@]2(CO)C[C@H]12 [Compound 16, (1R,2R,3S,4R,5S)-4-(7-Amino-5-chloro-3H-imidazo[4,5-b]pyridin-3-yl)-1-(hydroxymethyl)bicyclo[3.1.0]hexane-2,3-diol]	–
4	–	OC[C@@]12C[C@@H]1[C@@H](n1cnc3c(N(Cc4ccccc4)Cc4ccccc4)nc(Cl)nc31)[C@H](O)[C@@H]2O [Compound 27, (1R,2R,3S,4R,5S)-4-[6-(Dibenzylamino)-2-chloro-9H-purin-9-yl]-1-(hydroxymethyl)bicyclo[3.1.0]hexane-2,3-diol]	potency at the A3 receptor: not potent

The remaining lines, values behind:

SMILES	inhibition at 10 µM [%]	Ki [nM]	further results
Nc1cc(Cl)c2ncn([C@H]3[C@H](O)[C@H](O)[C@]4(CO)C[C@H]34)c2n1 [Compound 11, (1R,2R,3S,4R,5S)-4-(5-Amino-7-chloro-3H-imidazo[4,5-b]pyridin-3-yl)-1-(hydroxymethyl)bicyclo[3.1.0]hexane-2,3-diol]	4	–	–
CSc1cc(N)c2ncn([C@H]3[C@H](O)[C@H](O)[C@]4(CO)C[C@H]34)c2n1 [Compound 17, (1R,2R,3S,4R,5S)-4-(7-Amino-5-methylthio-3H-imidazo[4,5-b]pyridin-3-yl)-1-(hydroxymethyl)bicyclo[3.1.0]hexane-2,3-diol]	45	–	–
OC[C@@]12C[C@@H]1[C@@H](n1cnc3c(N(Cc4ccccc4)Cc4ccccc4)ncnc31)[C@H](O)[C@@H]2O [Compound 26, (1R,2R,3S,4R,5S)-4-[6-(Dibenzylamino)-9H-purin-9-yl]-1-(hydroxymethyl)bicyclo[3.1.0]hexane-2,3-diol]	8	–	potency at the A3 receptor: not potent
CSc1nc(N(Cc2ccccc2)Cc2ccccc2)c2ncn([C@H]3[C@H](O)[C@H](O)[C@]4(CO)C[C@H]34)c2n1 [Compound 30, (1R,2R,3S,4R,5S)-4-[6-(Dibenzylamino)-2-methylthio-9H-purin-9-yl]-1-(hydroxymethyl)bicyclo[3.1.0]hexane-2,3-diol]	–	380 ± 10	A3R selectivity (versus other P1 receptor subtypes): high A3R selectivity
CSc1nc(N(Cc2ccccc2)Cc2ccccc2)c2ncn([C@H]3[C@H](O)[C@H](O)[C@]4(CCl)C[C@H]34)c2n1 [Compound 31, (1S,2R,3S,4R,5S)-4-[6-(Dibenzylamino)-2-methylthio-9H-purin-9-yl]-1-(chloromethyl)bicyclo[3.1.0]hexane-2,3-diol]	26	–	potency at the A3 receptor: not potent
Nc1ncnc2c1ncn2[C@H]1[C@H](O)[C@H](O)[C@]2(CO)C[C@H]12 [Compound 36, (N)-methanocarba adenosine]	–	960 ± 50	–
